Data on three molecules can be found in patent publication US8426408B2, “Pyrimidine inhibitors of kinases” (AbbVie Inc., priority 2009, dated 2013).

pIC50, pKi: −log10 of the molar value.

For one experiment, the system named is NCI-H1299 cells. As to the kind of experiment: Induction of polyploidy in H1299. The format is cell-based, Human. Particulars: Homo sapiens; NCI-H1299, 48 hours; read-out: EC15 (concentration of inhibitor necessary to induce polyploidy in 15% of cells). The method, boiled down: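 NCI-H1299 cells in RPMI 1640/10% FCS were treated with inhibitor concentrations in duplicate for 48 h at 37 C, then formalin-fixed and Hoechst-stained. Nuclear area was measured by high-content imaging, with polyploid (≥4N) defined as >750 μ^2. EC15 was derived by least-squares fit of log dose-response.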

The next experiment concerns the target T1, Aurora B (Homo sapiens, UniProt Q96GD4).
T1 construct: Active Aurora B enzyme (recombinant residues 1-344)
Kind of experiment: Aurora B enzyme inhibition (time-resolved fluorescence, histone H3 peptide). The format is biochemical. Particulars: 1 mM ATP. The method, boiled down: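 Recombinant Aurora B (residues 1-344) with GST-INCENP phosphorylated biotinylated histone H3 (1-21) peptide at 1 mM ATP in HEPES pH 7.4 with MgCl2, orthovanadate and Triton X-100 for 1 h. After EDTA stop, the phosphopeptide was detected by TR-FRET (Eu-cryptate anti-phospho-H3 / SA-APC, 665/615 nm ratio). IC50 from an exponential fit.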

For another experiment, the target named is KDR (Homo sapiens, UniProt P35968). Kind of experiment: KDR cellular assay (KDR receptor phosphorylation ELISA). Format: cell-based. Details: expressed in transfected cells; host or cells: 3T3 (embryonic mouse) cells. Particulars: KDR transfected 3T3 (embryonic mouse) cells, VEGF stimulated; read-out: IC50 inhibition of KDR phosphorylation. Summed up:
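KDR-transfected mouse 3T3 cells treated 20 min at 37° C with half-log compound dilutions, then stimulated 10 min with VEGF (100 ng/ml solution). Lysates captured on anti-KDR plates; phosphorylation by biotin antibody/streptavidin-HRP ELISA at 450 nm. IC50 by non-linear regression.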
(In general: ELISA stands for enzyme-linked immunosorbent assay.)

T1 sequence (Q96GD4 whole entry, the tested form may be a part): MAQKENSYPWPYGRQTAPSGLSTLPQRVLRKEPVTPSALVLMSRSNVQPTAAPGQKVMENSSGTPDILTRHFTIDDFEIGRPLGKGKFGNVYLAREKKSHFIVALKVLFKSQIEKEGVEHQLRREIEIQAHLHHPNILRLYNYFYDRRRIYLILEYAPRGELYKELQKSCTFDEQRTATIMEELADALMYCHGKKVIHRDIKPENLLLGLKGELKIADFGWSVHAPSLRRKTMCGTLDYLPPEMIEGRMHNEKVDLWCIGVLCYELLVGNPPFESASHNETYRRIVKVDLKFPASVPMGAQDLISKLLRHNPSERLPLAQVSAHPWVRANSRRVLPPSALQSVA
T1 sequence (Q9NQS7 826-918 partner limits assumed): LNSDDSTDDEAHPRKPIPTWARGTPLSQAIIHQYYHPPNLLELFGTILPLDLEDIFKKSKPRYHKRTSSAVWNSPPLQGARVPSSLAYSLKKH
KDR, sequence (P35968 20-1356): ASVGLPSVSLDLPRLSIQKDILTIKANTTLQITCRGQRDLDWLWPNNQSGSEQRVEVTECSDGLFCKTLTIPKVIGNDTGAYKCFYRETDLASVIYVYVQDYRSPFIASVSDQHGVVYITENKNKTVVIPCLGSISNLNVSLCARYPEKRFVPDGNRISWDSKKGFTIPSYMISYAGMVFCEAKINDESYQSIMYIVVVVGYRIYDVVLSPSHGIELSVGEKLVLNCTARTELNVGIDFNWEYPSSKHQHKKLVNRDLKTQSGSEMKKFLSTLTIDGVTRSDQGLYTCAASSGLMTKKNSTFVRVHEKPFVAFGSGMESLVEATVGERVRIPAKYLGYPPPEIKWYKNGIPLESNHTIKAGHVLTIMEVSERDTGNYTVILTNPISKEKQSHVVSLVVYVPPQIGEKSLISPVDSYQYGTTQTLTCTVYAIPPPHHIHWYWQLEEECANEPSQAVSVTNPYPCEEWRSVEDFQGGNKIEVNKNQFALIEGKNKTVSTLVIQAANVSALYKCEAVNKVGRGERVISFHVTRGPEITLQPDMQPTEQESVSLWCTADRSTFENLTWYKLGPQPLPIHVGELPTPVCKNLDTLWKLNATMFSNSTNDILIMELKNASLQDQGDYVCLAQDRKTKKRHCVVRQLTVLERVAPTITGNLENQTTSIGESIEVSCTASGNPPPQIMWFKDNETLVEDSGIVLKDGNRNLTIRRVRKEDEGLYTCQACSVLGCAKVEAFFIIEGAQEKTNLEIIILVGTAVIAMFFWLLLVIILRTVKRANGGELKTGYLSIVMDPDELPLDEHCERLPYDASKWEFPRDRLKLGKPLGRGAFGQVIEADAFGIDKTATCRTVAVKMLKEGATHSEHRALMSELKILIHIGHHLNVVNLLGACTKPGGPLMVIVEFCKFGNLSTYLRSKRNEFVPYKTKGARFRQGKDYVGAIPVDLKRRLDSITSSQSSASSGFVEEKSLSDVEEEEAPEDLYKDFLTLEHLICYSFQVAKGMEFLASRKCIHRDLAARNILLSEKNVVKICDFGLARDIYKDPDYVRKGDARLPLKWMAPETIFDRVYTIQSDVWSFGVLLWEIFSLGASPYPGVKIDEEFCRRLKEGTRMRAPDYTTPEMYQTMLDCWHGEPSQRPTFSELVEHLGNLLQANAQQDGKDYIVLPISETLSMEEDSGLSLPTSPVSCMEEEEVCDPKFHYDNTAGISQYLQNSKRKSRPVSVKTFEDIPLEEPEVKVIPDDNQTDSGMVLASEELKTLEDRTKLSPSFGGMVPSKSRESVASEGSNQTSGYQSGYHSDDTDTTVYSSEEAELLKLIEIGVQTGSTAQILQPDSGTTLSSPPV

What is called pKi is the Ki on a negative log10 scale, so that one unit is a factor of ten. By pIC50 is commonly meant the negative decadic logarithm of the IC50, by convention in mol/L. For the molecule `CN1CCN(CCn2cc(Nc3ncc(Br)c(N[C@H]4[C@@H](C(N)=O)[C@@H]5C=C[C@H]4C5)n3)cn2)CC1` [Example 94, (1S,2S,3R,4R)-3-{[5-bromo-2-({1-[2-(4-methylpiperazin-1-yl)ethyl]-1H-pyrazol-4-yl}amino)pyrimidin-4-yl]amino}bicyclo[2.2.1]hept-5-ene-2-carboxamide], the EC15 in the experiment on NCI-H1299 cells is under 100 nM. The molecule also showed a pKi on Aurora B of over 7.00. For the same molecule, at KDR, the pIC50 is over 7.00.

Take `NC(=O)[C@@H]1[C@H](Nc2nc(Nc3cnn(C4CCNCC4)c3)ncc2Br)[C@H]2C=C[C@@H]1C2` [Example 95, (1S,2S,3R,4R)-3-[(5-bromo-2-{[1-(piperidin-4-yl)-1H-pyrazol-4-yl]amino}pyrimidin-4-yl)amino]bicyclo[2.2.1]hept-5-ene-2-carboxamide]: the EC15 with NCI-H1299 cells lay in the range of 100 to 1000 nM. This molecule also gave a negative-log Ki (pKi) on Aurora B of over 7.00. Besides, the pIC50 at KDR was over 7.00.

As for `COCCn1cc(Nc2ncc(Cl)c(N[C@H]3[C@@H](C(N)=O)[C@@H]4C=C[C@H]3C4)n2)cn1` [Example 96, (1S,2S,3R,4R)-3-[(5-chloro-2-{[1-(2-methoxyethyl)-1H-pyrazol-4-yl]amino}pyrimidin-4-yl)amino]bicyclo[2.2.1]hept-5-ene-2-carboxamide], the EC15 in the experiment on NCI-H1299 cells is 100 to 1000 nM. Also, the pKi on Aurora B was over 7.00. Further, the pIC50 on KDR is over 7.00.
